Assay: Solubility of sucralose in non-aqueous liquids
Assay type: physicochemical
Conditions: 1,3-propanediol vs propylene glycol
Text: Therefore, beverage concentrates containing sucralose may be advantageously prepared using a solvent comprising 1,3-propanediol to provide a beverage concentrate that is able to maintain sucralose in solution throughout its shelf life. In other instances, selection of NAL may also depend, at least in part, on the flavor provided by the NAL and the desired taste profile in the final beverage. In yet other instances, selection of NAL may also depend, at least in part, on the viscosity and/or the desired density of the resulting concentrate.

OC[C@H]1O[C@H](O[C@]2(CCl)O[C@H](CCl)[C@@H](O)[C@@H]2O)[C@H](O)[C@@H](O)[C@H]1Cl [sucralose]
solubility in non-aqueous liquid: more readily solubilized in 1,3-propanediol than in propylene glycol

Source: patent US20130040036A1, “Shelf Stable, Low Water Liquid Beverage Concentrates And Methods Of Making The Same” (priority 2011, published 2013)
